US7037682B2, “In vitro activity assay for human hepatitis B virus (HBV) DNA polymerase, and its use for screening for inhibitors of HBV DNA polymerase” (Government of the Republic of Singapore, priority 1999, dated 2006)
Entries after “also recorded” stand apart in the source; their conditions may differ.

System: wild type human HBV DNA polymerase
Test: In vitro priming activity assay of human HBV DNA polymerase (anti-priming testing, nitrocellulose membrane filtration)
Type: biochemical, human hepatitis B virus (HBV)
Settings: in vitro translated wild type enzyme in wheat germ lysate; [α-32P] dTTP; corresponding nucleotide replaced with the analog; 30° C. for 30 min; FIG. 6
Method: Unless otherwise noted, the polymerase activity assay was conducted in solution containing 100 mM Tris HCl (pH 7.5), 10 mM MgCl2, 30 mM NaCl, 10% glycerol, 4 mM dithiothreitol, 100 μM of each unlabeled deoxyribonucleotide triphosphates (dATP, dCTP and dGTP) and 5 μCi [α-^32P] dTTP. The reactions were incubated at 30° C. for 30 min, after which time a 5 μl aliquot was added to 85 μl of tricine sodium dodecyl sulfate-polyacrylamide gel electrophoresis (SDS-PAGE) sample buffer (Novex, U.S.A.), and 10 μl were analyzed on 10% SDS-PAGE. Following electrophoresis, gels were fixed by soaking in 10% methanol plus 10% acetic acid and dried under vacuum. Dried gels were exposed to X-ray film and signals quantified by laser densitometry.
Screening for inhibitors of human HBV DNA polymerase would provide novel therapeutic agents for HBV infection, as effective inhibition of the polymerase activity will lead to inhibition of HBV viral replication. The simplified activity assay reported in the present invention would allow faster analysis of the inhibitory effects of newly found molecules on DNA polymerase of variant HBV carrying mutations on the major surface antigen. Briefly, a candidate inhibitor was first incubated with the wild type human HBV DNA polymerase that was PCR amplified and in vitro translated as reported in the present invention. The incubation was in the presence of [α-^32P] dTTP and with other conditions identical as above-mentioned. Its inhibitory effect may be determined either by laser densitometry following SDS-PAGE analysis, or by measuring the amount of radiolabeled HBV DNA polymerase bound to nitrocellulose membrane after filtration. […] Further assay on the potential inhibitory effect derived from the above-mentioned assay may then be extended to other systems such as HBV-producing cell lines and transgenic animal model.
Depending on the type of label used, detection of the labeled hybrid HBV DNA polymerase product may be achieved by any appropriate means. Generally this may include a step of separating labeled mononucleotide from labeled human HBV DNA polymerase. […] When the label is a radiolabel as is the case in the simplified assay reported in the present invention, then the amount of radioactivity bound to the filter may be quantified using a plate reading scintillation counter.
In the present invention, the following nucleotide analogs capable of inhibiting the HBV DNA polymerase activity may be assayed for their anti-priming activity. […] The remaining radiolabeled human HBV DNA polymerase bound to the nitrocellulose membrane is then measured quantified using a plate reading scintillation counter.

SMILES | anti-priming effect (radiolabeled human HBV DNA polymerase remained on nitrocellulose membrane, as measured by cpm, compared with the control)
Nc1ncnc2c1ncn2[C@H]1CC[C@@H](COP(=O)(O)OP(=O)(O)OP(=O)(O)O)O1 [ddATP] | no obvious anti-priming effect; also recorded: no anti-priming activity is observed
Nc1ccn([C@H]2CC[C@@H](COP(=O)(O)OP(=O)(O)OP(=O)(O)O)O2)c(=O)n1 [ddCTP] | inhibitory effect is observed; also recorded: significantly lower amount
Nc1nc2c(ncn2[C@H]2CC[C@@H](COP(=O)(O)OP(=O)(O)OP(=O)(O)O)O2)c(=O)[nH]1 [ddGTP] | inhibitory effect is observed; also recorded: significantly lower amount
Cc1cn([C@H]2CC[C@@H](COP(=O)(O)OP(=O)(O)OP(=O)(O)O)O2)c(=O)[nH]c1=O [ddTTP] | no obvious anti-priming effect; also recorded: no anti-priming activity is observed
